One assay relates to NIH3T3 fibroblasts. The experiment in a line: Inhibition test of compounds on NIH3T3 fibroblasts (MTT method). In kind it is cell-based. To be noted: Mus musculus, relative IC50 obtained from multiple and IC50 of fluorofenidone on a certain plate. Here is the method:
Inhibition Test of Compounds on NIH3T3 fibroblasts
An MTT method is used and comprises steps of: culturing cells in DMEM culture medium including 5% calf serum and preparing the cells into cell suspension of 3×10^4/ml; inoculating in 96-well plate according to 100 μl/well; transferring new culture medium including compounds with different concentration, fluorofenidone and 1% calf serum after cells are adhered, wherein three repeated wells are provided for each concentration; respectively adding 100 μl of MTT solution in each well after 48 hours and 72 hours of administrating (the culture medium is prepared into 5 mg/ml and kept in dark after filtering), sucking out MTT after 4 hours; adding 150 μl of DMSO which is the dissolving liquid of MTT; after 10 min and MTT is completely dissolved, measuring OD value by ELISA reader; calculating IC50 values of fluorofenidone and measured compounds according to inhibition ratio; calculating multiple of activities of measured compounds and fluorofenidone according to IC50 values of fluorofenidone and measured compounds; and obtaining relative IC50 value of measured compounds according to multiple and IC50 value of fluorofenidone on a certain plate.

Assay [1] relates to rat unilateral ureteral obstruction renal fibrosis model. The experiment in a line: Treatment effect in a rat unilateral ureteral obstruction renal fibrosis model (HE and Masson staining). In kind it is in vivo. Here is the method:
Observation of Treatment Effect of Compound 13 in a Rat Unilateral Ureteral Obstruction Renal Fibrosis Model
Nine male SD rats of 188-213 g, coming from Hunan Slac Laboratory Animals Co., Ltd., are illuminated for 12 hours every day; feed is provided by Shanghai Slac Laboratory Animals Co., Ltd.; and drinking water is provided by Department of Laboratory Animal Science of Central South University.
(1) Randomization: nine rats are divided into three groups at random, namely a normal group (n=3); a model group (n=3) and a treatment group (n=3) treated by compound 13 of 15 mg/kg; three rats are in a hutch; and the experimental animals are adaptively fed for two days. […]
HE stained slices of renal tissues are successively observed in fives fields of view of renal tubulointerstitium on upper left side, upper right side, lower left side, lower right side and middle portion by a low power lens and are evaluated according to eight indexes of renal interstitium lesion: renal tubular epithelial cell vacuolar degeneration, renal tubular ectasia, renal tubular atrophy, red cell cast, protein cast, interstitial edema, interstitial fibrosis and interstitial inflammatory cell infiltration; an average value is calculated as the index of renal tubulointerstitial lesion of the sample; and the evaluation standard is based on the reference of Radford M G Jr, Donadio J V Jr, Bergstralh E J, et al. Predicting renal outcome in IgA nephropathy. […]
Masson stained slices of renal tissues are observed in 20 fields of vision for each sample at random under 400× light microscope; percent of blue-stained collagens in the fields of vision is calculated; an average value is determined after semi-quantitative evaluation: no positive staining, 0; <25%, 1; 25-50%, 2; 50-75%, 3; >75%, 4; and the evaluation standard is based on references. […]

For `COc1ccc(Cn2cc(C(F)(F)F)ccc2=O)cc1` [Compound 19, 1-(4-methoxybenzyl)-5-(trifluoromethyl)pyridin-2(1H)-one], the IC50 in the assay with NIH3T3 fibroblasts (48 hours after administration) came to 301 µM; in the assay on NIH3T3 fibroblasts (72 hours after administration) it was 384 µM.
Regarding `O=c1ccc(C(F)(F)F)cn1Cc1ccc(NCCCN2CCCCC2)cc1` [Compound 4, 1-(4-(((3-piperidin-1-yl)propyl)amino)benzyl)-5-(trifluoromethyl)pyridin-2(1H)-one], the figures for the IC50 in the assay with NIH3T3 fibroblasts (48 hours after administration) and in the assay on NIH3T3 fibroblasts (72 hours after administration) were 957 µM and 144 µM, respectively.
For `O=c1ccc(C(F)(F)F)cn1Cc1ccccc1F` [Compound 20, 1-(2-fluorobenzyl)-5-(trifluoromethyl)pyridin-2(1H)-one], the figures for the half-inhibitory concentration (IC50) in the assay with NIH3T3 fibroblasts (48 hours after administration) and in the assay with NIH3T3 fibroblasts (72 hours after administration) were 273 µM and 393 µM, respectively.
For `O=c1ccc(C(F)(F)F)cn1Cc1cccc(Cl)c1` [Compound 18, 1-(3-chlorobenzyl)-5-(trifluoromethyl)pyridin-2(1H)-one], the 50% inhibitory concentration (IC50) amounted to 1460 µM with NIH3T3 fibroblasts (48 hours after administration) and 1350 µM in the assay with NIH3T3 fibroblasts (72 hours after administration).
For the compound `CC(=O)Nc1ccc(Cn2cc(C(F)(F)F)ccc2=O)cc1` [Compound 13, 1-(4-acetamide-benzyl)-5-(trifluoromethyl)pyridin-2(1H)-one], the IC50 was 128 µM in the assay on NIH3T3 fibroblasts (48 hours after administration) and 68 µM in the assay with NIH3T3 fibroblasts (72 hours after administration). Further, the “Score (X ± S), renal interstitium collagens of left kidneys, MASSON staining” value in assay [1] (SD rats, UUO, 15 mg/kg intragastric once per day for 12 days, n=3, model group 2.45 ± 0.38, normal group 0.25 ± 0.00, p < 0.01 vs model) is 1.52 ± 0.16^⋆⋆**. Also, the “Score (X ± S), index of renal tubulointerstitial lesions of obstruction kidneys, HE staining” value in assay [1] (SD rats, UUO, 15 mg/kg intragastric once per day for 12 days, n=3, model group 9.00 ± 1.00, normal group 0.33 ± 0.12, p < 0.01 vs model) is listed as 7.00 ± 0.35^⋆⋆**. Moreover, the “Treatment effect on renal fibrosis (conclusion)” value in assay [1] (rat UUO model, 15 mg/kg) is on record as “can effectively treat renal fibrosis”.
For the compound `O=c1ccc(C(F)(F)F)cn1Cc1ccc(NCCO)cc1` [Compound 6, 1-(4-((2-hydroxyethyl)amino)benzyl)-5-(trifluoromethyl)pyridin-2(1H)-one], the values for the IC50 with NIH3T3 fibroblasts (48 hours after administration) and in the assay with NIH3T3 fibroblasts (72 hours after administration) were 1010 µM and 638 µM, respectively.
As for `O=c1ccc(C(F)(F)F)cn1Cc1ccccc1` [Structure IV, reference compound], the half-maximal inhibitory concentration (IC50) amounted to 1160 µM with NIH3T3 fibroblasts (48 hours after administration) and 729 µM in the assay with NIH3T3 fibroblasts (72 hours after administration).
The like results for `O=c1ccc(C(F)(F)F)cn1Cc1ccccc1NCCN1CCNCC1` [Compound 22, 1-(2-(2-(piperazin-1-yl)ethylamino)benzyl)-5-(trifluoromethyl)pyridin-2(1H)-one] were, in that order, 168 µM and 291 µM.
On to `O=c1ccc(C(F)(F)F)cn1Cc1c(Cl)cccc1Cl` [Compound 14, 1-(2,6-dichlorobenzyl)-5-(trifluoromethyl)pyridin-2(1H)-one], for which the results for the half-inhibitory concentration (IC50) with NIH3T3 fibroblasts (48 hours after administration) and in the assay with NIH3T3 fibroblasts (72 hours after administration) were 346 µM and 182 µM, respectively.
Turning to `O=c1ccc(C(F)(F)F)cn1Cc1ccc([N+](=O)[O-])cc1` [Compound 1, 1-(4-nitrobenzyl)-5-(trifluoromethyl)pyridin-2(1H)-one], the 50% inhibitory concentration (IC50) was determined as 552 µM in the assay with NIH3T3 fibroblasts (48 hours after administration) and 470 µM with NIH3T3 fibroblasts (72 hours after administration).
`O=c1ccc(C(F)(F)F)cn1Cc1ccc(NCCN2CCOCC2)cc1` [Compound 8, 1-(4-((2-morpholinylethyl)amino)benzyl)-5-(trifluoromethyl)pyridin-2(1H)-one]: the half-maximal inhibitory concentration (IC50) was determined as 367 µM in the assay with NIH3T3 fibroblasts (48 hours after administration) and 229 µM with NIH3T3 fibroblasts (72 hours after administration).
The like results for `Nc1ccc(Cn2cc(C(F)(F)F)ccc2=O)cc1` [Compound 2, 1-(4-amino-benzyl)-5-(trifluoromethyl)pyridin-2(1H)-one] were, in that order, 1390 µM and 1510 µM.
For the compound `O=c1ccc(C(F)(F)F)cn1Cc1ccccc1[N+](=O)[O-]` [Compound 16, 1-(2-nitrobenzyl)-5-(trifluoromethyl)pyridin-2(1H)-one], the IC50 in the assay with NIH3T3 fibroblasts (48 hours after administration) is 1040 µM; in the assay with NIH3T3 fibroblasts (72 hours after administration) it was 1030 µM.
Turning to `O=c1ccc(C(F)(F)F)cn1Cc1ccc(NCCN2CCCCC2)cc1` [Compound 7, 1-(4-((2-(piperidyl-1-yl)ethyl)amino)benzyl)-5-(trifluoromethyl)pyridin-2(1H)-one], the results for the IC50 with NIH3T3 fibroblasts (48 hours after administration) and in the assay with NIH3T3 fibroblasts (72 hours after administration) were 4180 µM and 340 µM, respectively.
Turning to `Cc1ccc(=O)n(-c2cccc(F)c2)c1` [Fluorofenidone, reference compound], the IC50 was 4430 µM in the assay with NIH3T3 fibroblasts (48 hours after administration) and 3520 µM in the assay on NIH3T3 fibroblasts (72 hours after administration).
Regarding `CN1CCN(CCCNc2ccc(Cn3cc(C(F)(F)F)ccc3=O)cc2)CC1` [Compound 5, 1-(4-((3-(4-methyl-piperazin-1-yl)propyl)amino)benzyl)-5-(trifluoromethyl)pyridin-2(1H)-one], the 50% inhibitory concentration (IC50) with NIH3T3 fibroblasts (48 hours after administration) was found to be 141 µM; in the assay with NIH3T3 fibroblasts (72 hours after administration), 98 µM.
For `O=c1ccc(C(F)(F)F)cn1Cc1ccccc1NCCO` [Compound 21, 1-(2-(2-hydroxyethylamino)benzyl)-5-(trifluoromethyl)pyridin-2(1H)-one] the same measures were 664 µM and 587 µM.
The like results for `O=c1ccc(C(F)(F)F)cn1Cc1ccccc1NCCN1CCOCC1` [Compound 25, 1-(2-(2-morpholinoethylamino)benzyl)-5-(trifluoromethyl)pyridin-2(1H)-one] were, in that order, 368 µM and 264 µM.
For `O=c1ccc(C(F)(F)F)cn1Cc1ccc(NCCN2CCN(CCO)CC2)cc1` [Compound 11, 1-(4-((2-(4-(2-hydroxyethyl)piperazin-1-yl)ethyl)amino)benzyl)-5-(trifluoromethyl)pyridin-2(1H)-one], the IC50 in the assay on NIH3T3 fibroblasts (48 hours after administration) is 526 µM; in the assay on NIH3T3 fibroblasts (72 hours after administration), 131 µM.
Regarding `O=c1ccc(C(F)(F)F)cn1Cc1ccc(NCCCN2CCOCC2)cc1` [Compound 3, 1-(4-((3-morpholinylpropyl)amino)benzyl)-5-(trifluoromethyl)pyridin-2(1H)-one], the IC50 stood at 424 µM in the assay with NIH3T3 fibroblasts (48 hours after administration) and 229 µM with NIH3T3 fibroblasts (72 hours after administration).
`CN1CCN(CCNc2ccc(Cn3cc(C(F)(F)F)ccc3=O)cc2)CC1` [Compound 9, 1-(4-((2-(4-methyl-piperazin-1-yl)ethyl)amino)benzyl)-5-(trifluoromethyl)pyridin-2(1H)-one]: the concentration for half-maximal inhibition (IC50) is 181 µM in the assay on NIH3T3 fibroblasts (48 hours after administration) and 120 µM with NIH3T3 fibroblasts (72 hours after administration).
Consider `O=c1ccc(C(F)(F)F)cn1Cc1ccc(F)cc1` [Compound 15, 1-(4-fluorobenzyl)-5-(trifluoromethyl)pyridin-2(1H)-one], for which the values for the half-maximal inhibitory concentration (IC50) with NIH3T3 fibroblasts (48 hours after administration) and with NIH3T3 fibroblasts (72 hours after administration) were 1080 µM and 1090 µM, respectively.
For `Nc1ccccc1Cn1cc(C(F)(F)F)ccc1=O` [Compound 17, 1-(2-aminobenzyl)-5-(trifluoromethyl)pyridin-2(1H)-one], the results for the 50% inhibitory concentration (IC50) in the assay with NIH3T3 fibroblasts (48 hours after administration) and with NIH3T3 fibroblasts (72 hours after administration) were 1810 µM and 1270 µM, respectively.

The record behind these values is patent publication US8377932B2, “Preparation of 1-(substituted benzyl)-5-trifluoromethyl-2(1H)pyridone compounds and salts thereof and their applications” (Central South University, priority 2009, dated 2013).
